Consider eight molecules from patent US20260184725A1, “CYCLIC 2-AMINOPYRIMIDINE COMPOUND AND PHARMACEUTICAL COMPOSITION AND USE THEREOF” (SHANGHAI INSTITUTE OF ORGANIC CHEMISTRY, CHINESE ACADEMY OF …, priority 2023, published 2026).

Structures are written as SMILES. Where only a bound is given, the exact number is not on record here.

Data set [1] concerns the target T1, EGFR^WT (Homo sapiens, UniProt P00533).
T1 construct: purchased Eurofins
In words: ELISA kinase activity inhibition, wild-type EGFR. In kind it is biochemical. To be noted: ATP 5 μM, read-out: The average IC50 value (nM) for inhibiting the activity of different tyrosine kinases, EGFR^WT. The method, then: (§1) EGFR (WT) is a wild-type epidermal growth factor receptor.
(§2) Enzyme-Linked Immunosorbent Assay (ELISA) was used to detect the inhibitory effect of compounds on kinase activity.
(§3) The main experimental steps were as follows: Enzyme reaction substrate Poly (Glu, Tyr)4:1 was diluted with potassium free PBS (10 mM sodium phosphate buffer, 150 mM NaCl, pH 7.2-7.4) to 20 μg/mL, and reacted at 37° C. for 12 hours to 16 hours to coat the enzyme-linked immunosorbent assay plate. ATP solution (final concentration 5 μM) diluted with reaction buffer (50 mM HEPES pH 7.4, 50 mM MgCl2, 0.5 mM MnCl2, 0.2 mM Na3VO4, 1 mM DTT) was added to each well, followed by the test compound or solvent control, then the kinase reaction was initiated and the plate was shaken at 37° C. for 1 hour. The plate was washed three times with T-PBS, then added antibody PY99. The plate was shaken at 37° C. for 0.5 hours. After washing the plate with T-PBS, added horseradish peroxidase-labeled IgG and shaken at 37° C. for 0.5 hours. After washing the plate again, added 2 mg/mL of OPD colorimetric solution and incubated at 25° C. in the dark for 1 minutes to 10 minutes. […] The IC50 values were obtained from the inhibition curve analysis.

Data set [2] deals with EGFR^L858R/T790M/C797S (Homo sapiens, UniProt P00533, C797S/L858R/T790M). In words: ELISA kinase activity inhibition, EGFR L858R/T790M/C797S. Type of data set: biochemical. The note with it: ATP 5 μM, read-out: The average IC50 value (nM) for inhibiting the activity of different tyrosine kinases, EGFR^L858R/T790M/C797S. As for the experimental part:
as §2, §3

Data set [3] has as its target T2, EGFR^19del/T790M/C797S (Homo sapiens, UniProt P00533, T790M/C797S, form not given).
T2 construct: fused on or other part: Probably a GST tag on the cytoplasmic fragment, as in the vendor's product
The data set is described as follows: ELISA kinase activity inhibition, EGFR 19del/T790M/C797S. In kind it is biochemical. The note with it: ATP 5 μM, read-out: The average IC50 value (nM) for inhibiting the activity of different tyrosine kinases, EGFR^19del/T790M/C797S. As for the experimental part:
as §1, §2, §3

The test system of data set [4] is BaF3 parent cell. In words: CCK-8 cell proliferation, BaF3 parent cell. In kind it is cell-based. To be noted: Mus musculus, BaF3; CCK-8, 72 hours; read-out: Average value of IC50 of inhibition against cells growth, BaF3 parent cell. From the text:
(§4) Ba/F3 cells were obtained from Deutsche Sammlung von Mikroorganismen und Zellkulturen GmbH (DSMZ). Ba/F3 cells stably expressing EGFR19del/T790M/C797S or EGFR L858R/T790M/C797S were generated by infecting parental cells with corresponding retroviruses. PC-9-OR was a tumor cell model obtained by simultaneously knocking in T790M and C797S mutations into 19del-activating mutation-dependent PC-9 tumor cells using CRISPR technology. This model, which proliferated dependent on EGFR19del/T790M/C797S resistance mutation, was used to evaluate the inhibitory activity of compounds against EGFR19del/T790M/C797S resistance mutants (Cancer Science. 2022; 113:709-720). All cells used in the study were verified by short tandem repeat (STR) analysis conducted by Genesky.
(§5) Tumor cell viability was assessed using a CCK-8 cell counting kit (A311-01/02, Vazyme, Nanjing, China). Cells were seeded at a density of 3000 cells per well into 96-well plates and cultured overnight. Subsequently, the cells were treated with compounds of different concentrations and incubated for 72 hours. After 72 hours, 10 μL of CCK-8 solution was added to each well. The plates were then returned to the incubator and incubated at 37° C. for 2 hours. The absorbance was measured at 450 nm using a microplate reader. A calibration curve was constructed using data obtained from wells containing known numbers of viable cells.

In data set [5] the target is BaF3-EGFR (19del/T790M/C797S) (Homo sapiens, UniProt P00533, T790M/C797S, cells depend on it, form not given). In words: CCK-8 cell proliferation, BaF3-EGFR(19del/T790M/C797S). To be noted: CCK-8, 72 hours; read-out: Average value of IC50 of inhibition against EGFR-mutant cells growth, BaF3-EGFR (19del/T790M/C797S). In kind it is cell-based. As for the experimental part:
(§6) Ba/F3 cells were obtained from Deutsche Sammlung von Mikroorganismen und Zellkulturen GmbH (DSMZ). […] All cells used in the study were verified by short tandem repeat (STR) analysis conducted by Genesky.
as §5

The target in data set [6] is BaF3-EGFR (L858R/T790M/C797S) (Homo sapiens, UniProt P00533, T790M/C797S/L858R, cells depend on it). In words: CCK-8 cell proliferation, BaF3-EGFR(L858R/T790M/C797S). The note with it: CCK-8, 72 hours; read-out: Average value of IC50 of inhibition against EGFR-mutant cells growth, BaF3-EGFR (L858R/T790M/C797S). Type of data set: cell-based. As for the experimental part:
as §6, §5

For data set [7], the system named is PC-9-OR (19del/T790M/C797S). The data set is described as follows: CCK-8 cell proliferation, PC-9-OR. Type of data set: cell-based. To be noted: PC9-OR; CCK-8, 72 hours; read-out: Average value of IC50 of inhibition against EGFR-mutant cells growth, PC-9-OR (19del/T790M/C797S).
From the text: as §4, §5

A short description of data set [8]: Pharmacokinetic parameters in rats. Type of data set: in vivo. To be noted: male, Sprague-Dawley, plasma, rat. As for the experimental part: Sprague-Dawley rats (males, 3 per group), weighing 180 g to 220 g, were administered test compounds intravenously and orally at doses of 1 mg/kg and 5 mg/kg, respectively. The compounds were dissolved in a mixed solvent (5% DMSO+10% Solutol+85% PBS) for intravenous injection. 0.5% CMC-Na solution (800 cps to 1200 cps) was used as a suspension agent for oral administration. At designated time points, 0.2 mL of blood samples were collected via the jugular vein and placed into tubes containing K2-EDTA, stored on ice, and then centrifuged. Sampling intervals for the injection group were 0.083, 0.25, 0.5, 1, 2, 4, 8, and 24 hours, while for the oral group, sampling intervals were 0.25, 0.5, 1, 2, 4, 6, 8, and 24 hours. The blood samples were centrifuged at 6800 g for 6 minutes at 2° C. to 8° C. within 1 hour after collection and stored frozen at approximately −80° C. Subsequently, 200 μL of MeOH was used to precipitate 20 μL of plasma samples containing 100 ng/mL IS. The mixture was vortexed for 1 minute and then centrifuged at 18000 g for 7 minutes. 200 μL of the supernatant was transferred to a 96-well plate, and 1 μL of the supernatant sample was injected for LC-MS/MS analysis. Finally, Phoenix WinNonlin7.0 software was used to calculate the pharmacokinetic (PK) parameters.

Sequence of BaF3-EGFR (L858R/T790M/C797S) (P00533 whole entry T790M/C797S/L858R): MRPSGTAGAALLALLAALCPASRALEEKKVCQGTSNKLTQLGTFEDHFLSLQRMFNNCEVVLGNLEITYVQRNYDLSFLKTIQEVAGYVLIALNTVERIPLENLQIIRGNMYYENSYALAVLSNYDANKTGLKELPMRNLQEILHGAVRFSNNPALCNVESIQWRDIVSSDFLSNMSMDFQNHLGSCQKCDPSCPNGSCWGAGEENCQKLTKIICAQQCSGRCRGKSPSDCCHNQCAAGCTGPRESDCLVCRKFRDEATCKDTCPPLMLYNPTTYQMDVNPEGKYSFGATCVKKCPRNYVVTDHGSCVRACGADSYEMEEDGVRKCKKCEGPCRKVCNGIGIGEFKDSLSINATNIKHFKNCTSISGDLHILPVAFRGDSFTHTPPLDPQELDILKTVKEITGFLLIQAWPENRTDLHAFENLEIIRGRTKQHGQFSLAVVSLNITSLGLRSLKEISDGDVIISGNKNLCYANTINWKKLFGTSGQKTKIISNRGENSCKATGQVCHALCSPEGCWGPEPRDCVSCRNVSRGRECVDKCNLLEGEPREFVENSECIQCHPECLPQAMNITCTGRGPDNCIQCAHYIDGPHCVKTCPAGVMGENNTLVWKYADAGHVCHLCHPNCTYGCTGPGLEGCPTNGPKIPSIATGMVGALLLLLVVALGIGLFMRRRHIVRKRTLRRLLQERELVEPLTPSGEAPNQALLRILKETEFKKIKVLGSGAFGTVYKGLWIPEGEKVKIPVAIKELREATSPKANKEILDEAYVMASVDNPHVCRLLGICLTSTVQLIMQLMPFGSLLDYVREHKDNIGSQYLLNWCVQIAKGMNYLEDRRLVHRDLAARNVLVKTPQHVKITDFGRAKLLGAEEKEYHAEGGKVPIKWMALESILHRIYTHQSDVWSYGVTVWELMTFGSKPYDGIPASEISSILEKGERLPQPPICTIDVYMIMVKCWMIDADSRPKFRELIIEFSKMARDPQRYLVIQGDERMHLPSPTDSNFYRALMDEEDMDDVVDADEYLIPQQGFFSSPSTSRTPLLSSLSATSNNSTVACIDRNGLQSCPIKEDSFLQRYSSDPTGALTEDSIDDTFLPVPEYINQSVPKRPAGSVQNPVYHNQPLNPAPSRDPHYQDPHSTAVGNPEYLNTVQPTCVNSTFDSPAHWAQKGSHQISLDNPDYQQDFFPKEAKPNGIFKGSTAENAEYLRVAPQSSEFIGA
Sequence of EGFR^L858R/T790M/C797S (P00533 25-1210 T790M/C797S/L858R): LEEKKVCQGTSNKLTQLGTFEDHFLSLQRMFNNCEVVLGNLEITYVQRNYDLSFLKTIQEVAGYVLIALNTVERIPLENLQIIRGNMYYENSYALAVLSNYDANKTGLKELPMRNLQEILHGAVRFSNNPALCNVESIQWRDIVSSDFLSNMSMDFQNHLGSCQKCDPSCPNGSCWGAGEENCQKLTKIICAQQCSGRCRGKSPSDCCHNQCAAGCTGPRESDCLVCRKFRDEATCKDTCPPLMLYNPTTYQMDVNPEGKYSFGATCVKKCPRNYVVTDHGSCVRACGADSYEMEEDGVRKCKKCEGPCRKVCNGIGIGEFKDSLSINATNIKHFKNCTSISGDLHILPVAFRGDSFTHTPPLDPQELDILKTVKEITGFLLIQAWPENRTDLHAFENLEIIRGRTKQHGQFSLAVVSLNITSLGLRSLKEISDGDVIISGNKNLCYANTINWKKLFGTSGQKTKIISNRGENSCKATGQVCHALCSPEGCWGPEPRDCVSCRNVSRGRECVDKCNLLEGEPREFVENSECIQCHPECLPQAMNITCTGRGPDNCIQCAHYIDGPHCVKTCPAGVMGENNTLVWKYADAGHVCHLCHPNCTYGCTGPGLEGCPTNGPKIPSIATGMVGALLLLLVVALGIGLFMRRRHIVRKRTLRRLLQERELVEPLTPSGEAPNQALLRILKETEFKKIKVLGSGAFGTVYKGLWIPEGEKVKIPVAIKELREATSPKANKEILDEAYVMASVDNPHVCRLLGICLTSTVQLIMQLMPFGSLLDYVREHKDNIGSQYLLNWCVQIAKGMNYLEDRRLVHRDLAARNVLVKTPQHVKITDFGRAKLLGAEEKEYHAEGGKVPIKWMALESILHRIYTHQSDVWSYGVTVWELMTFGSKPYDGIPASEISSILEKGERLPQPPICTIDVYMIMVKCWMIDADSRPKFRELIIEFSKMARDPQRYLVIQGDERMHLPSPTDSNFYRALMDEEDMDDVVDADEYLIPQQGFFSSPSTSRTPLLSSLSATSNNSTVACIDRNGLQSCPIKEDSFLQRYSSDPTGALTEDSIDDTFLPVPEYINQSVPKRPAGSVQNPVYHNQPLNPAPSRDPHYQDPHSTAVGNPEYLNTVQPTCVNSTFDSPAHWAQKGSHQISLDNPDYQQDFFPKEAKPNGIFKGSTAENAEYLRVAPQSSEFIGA
T1 sequence (P00533 25-1210): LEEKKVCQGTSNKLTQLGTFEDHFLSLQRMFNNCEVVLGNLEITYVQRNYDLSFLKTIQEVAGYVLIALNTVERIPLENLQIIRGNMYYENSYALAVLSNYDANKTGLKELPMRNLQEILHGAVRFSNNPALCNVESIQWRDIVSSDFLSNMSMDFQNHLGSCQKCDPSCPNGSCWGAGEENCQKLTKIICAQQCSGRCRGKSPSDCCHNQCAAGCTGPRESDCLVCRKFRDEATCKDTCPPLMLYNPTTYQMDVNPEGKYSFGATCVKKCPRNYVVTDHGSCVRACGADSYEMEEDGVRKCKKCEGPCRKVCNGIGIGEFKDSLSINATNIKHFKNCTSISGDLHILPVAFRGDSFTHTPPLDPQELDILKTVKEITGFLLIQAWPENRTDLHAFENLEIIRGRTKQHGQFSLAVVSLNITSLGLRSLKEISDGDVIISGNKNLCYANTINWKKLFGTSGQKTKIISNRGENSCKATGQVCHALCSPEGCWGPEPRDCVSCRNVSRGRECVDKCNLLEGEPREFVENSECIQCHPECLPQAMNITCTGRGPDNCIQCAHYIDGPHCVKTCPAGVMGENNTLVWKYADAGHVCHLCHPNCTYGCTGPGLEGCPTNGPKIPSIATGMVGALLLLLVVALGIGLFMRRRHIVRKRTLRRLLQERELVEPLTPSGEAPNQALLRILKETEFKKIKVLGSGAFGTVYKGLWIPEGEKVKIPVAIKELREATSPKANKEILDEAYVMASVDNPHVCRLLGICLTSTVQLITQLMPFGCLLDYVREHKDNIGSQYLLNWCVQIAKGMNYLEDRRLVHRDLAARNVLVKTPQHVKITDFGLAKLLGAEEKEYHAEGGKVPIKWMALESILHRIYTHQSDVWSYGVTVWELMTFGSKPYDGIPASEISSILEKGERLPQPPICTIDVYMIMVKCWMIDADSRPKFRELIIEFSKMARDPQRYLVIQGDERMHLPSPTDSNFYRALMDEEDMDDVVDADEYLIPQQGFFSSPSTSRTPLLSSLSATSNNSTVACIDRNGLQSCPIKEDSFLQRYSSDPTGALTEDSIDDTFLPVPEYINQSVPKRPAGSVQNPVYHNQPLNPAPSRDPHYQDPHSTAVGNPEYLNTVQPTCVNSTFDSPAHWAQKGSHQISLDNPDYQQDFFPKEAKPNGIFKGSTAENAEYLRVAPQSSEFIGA
Sequence of BaF3-EGFR (19del/T790M/C797S) (P00533 with tags, fused parts or gaps DEL746-750/T790M/C797S, form open): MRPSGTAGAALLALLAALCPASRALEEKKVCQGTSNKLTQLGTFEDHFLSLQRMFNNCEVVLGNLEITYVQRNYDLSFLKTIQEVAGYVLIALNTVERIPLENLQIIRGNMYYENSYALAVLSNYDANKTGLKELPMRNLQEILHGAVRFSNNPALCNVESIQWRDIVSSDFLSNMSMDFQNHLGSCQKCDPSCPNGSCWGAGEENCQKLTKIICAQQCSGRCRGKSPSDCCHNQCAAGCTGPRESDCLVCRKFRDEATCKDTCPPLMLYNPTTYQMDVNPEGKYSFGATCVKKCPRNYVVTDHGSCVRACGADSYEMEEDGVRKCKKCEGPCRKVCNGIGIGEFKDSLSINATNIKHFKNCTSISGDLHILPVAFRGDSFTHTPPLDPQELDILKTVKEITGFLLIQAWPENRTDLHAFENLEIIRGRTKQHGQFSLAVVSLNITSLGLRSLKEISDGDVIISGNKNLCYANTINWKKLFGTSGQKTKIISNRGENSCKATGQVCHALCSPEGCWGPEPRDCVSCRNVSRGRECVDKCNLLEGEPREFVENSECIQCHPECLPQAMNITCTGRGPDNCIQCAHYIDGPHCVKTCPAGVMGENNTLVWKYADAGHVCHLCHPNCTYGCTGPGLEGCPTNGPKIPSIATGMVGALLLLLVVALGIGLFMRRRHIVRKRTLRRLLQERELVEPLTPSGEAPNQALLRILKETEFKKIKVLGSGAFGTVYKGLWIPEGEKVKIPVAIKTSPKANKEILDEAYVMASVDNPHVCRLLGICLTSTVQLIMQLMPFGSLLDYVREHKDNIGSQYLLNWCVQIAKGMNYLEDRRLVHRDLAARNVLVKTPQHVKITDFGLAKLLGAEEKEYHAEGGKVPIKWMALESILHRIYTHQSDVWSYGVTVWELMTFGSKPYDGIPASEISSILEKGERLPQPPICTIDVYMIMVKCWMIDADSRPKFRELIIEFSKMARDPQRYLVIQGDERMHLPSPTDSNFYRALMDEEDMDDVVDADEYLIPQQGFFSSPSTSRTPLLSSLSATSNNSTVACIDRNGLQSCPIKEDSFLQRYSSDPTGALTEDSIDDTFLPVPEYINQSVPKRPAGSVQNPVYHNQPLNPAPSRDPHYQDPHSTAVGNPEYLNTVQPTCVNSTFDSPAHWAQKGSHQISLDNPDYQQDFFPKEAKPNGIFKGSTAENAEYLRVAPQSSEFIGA

Turning to `CCS(=O)(=O)n1cc2c3ccc(cc31)OCCCn1cc(cn1)-c1cc(ccc1N1CCOCC1)Nc1ncc(Cl)c-2n1` [HC871, (Z)-2^5-Chloro-1^1-(ethylsulfonyl)-4^4-morpholino-1^1H,5^1H-9-oxa-3-aza-1(3,6)-indola-2(4,2)-pyrimidina-5(4,1)-pyrazola-4(1,3)-benzenacyclononaphane], the IC50 in data set [1] was more than 1000 nM; in data set [2], 4.9 nM; in data set [3], 6.3 nM; in data set [4] it was 0.217 µM; in data set [7], 0.085 µM. The results for the GI50 in data set [5] and in data set [6] were 0.07 µM and 0.074 µM, respectively.
Turning to `CCS(=O)(=O)n1cc2c3ccc(cc31)OCCCn1cc(cn1)-c1cc(ccc1N1CCOCC1)Nc1nccc-2n1` [HC950, 1^1-ethylsulfonyl-4^6-methyl-4^4-(4-methylpiperazin-1-yl)-1^1H,5^1H-9-oxa-3-aza-1(3,6)-indole-2(4,2)-pyrimidine-5(4,1)-pyrazole-4(1,3)-benzenacyclononaphane], the IC50 came out at 111 nM in data set [1]; 0.4 nM in data set [2]; 4.3 nM in data set [3]; 0.95 µM in data set [4]; 0.149 µM in data set [7]. The GI50 in data set [5] came to 0.17 µM; in data set [6], 0.336 µM.
As for `CCS(=O)(=O)n1cc2c3ccc(cc31)OCCCn1cc(cn1)-c1cc(c(C)cc1N1CCOCC1)Nc1nccc-2n1` [HC950M, (Z)-1^1-Ethylsulfonyl-4^6-methyl-4^4-morpholino-1^1H,5^1H-9-oxa-3-aza-1 (3,6)-indole-2(4,2)-pyrimidine-5(4,1) pyrazol-4(1,3)-benzenacyclononaphane], the IC50 came to 37.6 nM in data set [1]; 1.9 nM in data set [2]; 7.3 nM in data set [3]; 0.445 µM in data set [4]; 0.149 µM in data set [7]. Further, the GI50 in data set [5] stood at 0.086 µM; in data set [6], 0.108 µM.
With `CCS(=O)(=O)n1cc2c3ccc(cc31)OCCCCn1cc(cn1)-c1cc(ccc1N1CCOCC1)Nc1ncc(Cl)c-2n1` [HC8714, 2^5-Chloro-1^1-Ethylsulfonyl-4^4-morpholino-1^1H,5^1H-10-oxa-3-aza-1(3,6)-Indole-2(4,2)-Pyrimidin-5(4,1)-Pyrazol-4(1,3)-Phenyldecane], the IC50 in data set [1] is 802 nM; in data set [2], 9.3 nM; in data set [3], 2.7 nM; in data set [4] it was 0.274 µM; in data set [7], 0.155 µM. Also, the GI50 in data set [5] came to 0.091 µM; in data set [6], 0.075 µM.
Turning to `Cc1cc(N2CCOCC2)c2cc1Nc1ncc(Cl)c(n1)-c1c[nH]c3cc(ccc13)OCCCn1cc-2cn1` [HC8990, 2^5-Chloro-4^6-Methyl-4^4-morpholino-1^1H,5^1H-9-oxa-3-aza-1(3,6)-Indole-2(4,2)-Pyrimidin-5(4,1)Pyrazol-4(1,3)-benzenacyclononaphane], the IC50 in data set [1] was 342 nM; in data set [2] it was 1 nM; in data set [3], 3.4 nM; in data set [4] it was 3.29 µM; in data set [7] it was 0.531 µM. Also, the GI50 in data set [5] turned out to be 0.429 µM; in data set [6] it was 0.325 µM.
As for `CCS(=O)(=O)n1cc2c3ccc(cc31)OCCCn1cc(cn1)-c1cc(c(C)cc1N1CCN(C)CC1)Nc1ncc(Cl)c-2n1` [HC9452, 2^5-chloro-1^1-ethylsulfonyl-4^6-methyl-4^4-(4-methylpiperazin-1-yl)-1^1H,5^1H-9-oxa-3-aza-1(3,6)-indole-2(4,2)-pyrimidine-5(4,1)-pyrazole-4(1,3)-benzenacyclononaphane], the IC50 in data set [1] is 44.7 nM; in data set [2], 4.3 nM; in data set [3], 4.3 nM; in data set [4], 1.79 µM; in data set [7], 0.081 µM. The GI50 was found to be 0.472 µM in data set [5] and 0.591 µM in data set [6].
With `CCS(=O)(=O)n1cc2c3ccc(cc31)OCCCn1cc(cn1)-c1cc(c(OC)cc1N1CCOCC1)Nc1nccc-2n1` [HC9591, (Z)-1^1-Ethylsulfonyl-4^6-methoxy-4^4-morpholin-1^1H,5^1H-9-oxa-3-aza-1 (3,6)-indole-2(4,2)-pyrimidine-5(4,1) pyrazole-4(1,3)-benzenacyclononaphane], the IC50 in data set [1] is 632 nM; in data set [2], 2 nM; in data set [3], 1.7 nM; in data set [4], 1.81 µM; in data set [7], 0.269 µM. Further, the GI50 in data set [5] was 0.189 µM; in data set [6], 0.301 µM. Moreover, the Cmax in data set [8] (IV 1 mg/kg) is 1.57 ± 0.22 µg/mL; in data set [8] (PO 5 mg/kg) it was 0.33 ± 0.0565 µg/mL. Besides, the clearance in data set [8] (IV 1 mg/kg) is 0.552 ± 0.126 L/h/kg. For the same molecule, the half-life in data set [8] (IV 1 mg/kg) was 7.1 ± 0.95 h; in data set [8] (PO 5 mg/kg), 8.13 ± 0.08 h. In addition, the bioavailability in data set [8] (PO 5 mg/kg, read-out: F (oral bioavailability)) was 39.6 ± 9%.
As to `CCS(=O)(=O)n1cc2c3ccc(cc31)OCCCn1cc(cn1)-c1cc(c(OC)cc1N1CCC(N3CCN(C)CC3)CC1)Nc1nccc-2n1` [HC9594, (Z)-1^1-ethylsulfonyl-4^6-methoxy-4^4-(4-methylpiperazin-1-yl) piperidin-1-yl)-1^1H,5^1H-9-oxa-3-aza-1(3,6)-indole-2(4,2)-pyrimidine-5(4,1)-pyrazolol-4(1,3)-benzenacyclononaphane], the IC50 was 112 nM in data set [1]; 2.2 nM in data set [2]; 1.7 nM in data set [3]; more than 10 µM in data set [4]; 0.925 µM in data set [7]. Moreover, the GI50 in data set [5] was found to be 1.22 µM; in data set [6] it was 0.735 µM.
